Measured values as given in patent publication US7074789B2, “Kinase inhibitors” (Amgen Inc., priority 1999, dated 2006).

Tests used:
Format in all cases: biochemical
Lck = target: T1, Lck (Homo sapiens, UniProt P06239); test: Kinase inhibition assay (33P transfer), Lck; settings: Table 3; read-out: Lck-1
T1 construct: Kinases are expressed as either kinase domains or full length constructs; made in house
Outline: (§1)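 GST/His-tagged kinase (domain or full length; E. coli or baculovirus) + [33P]ATP on plates coated with poly(Glu,Tyr) 4:1 or poly(Arg,Ser) 3:1; incubate, wash 0.5% H3PO4, add scintillant, count.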

Lyn = target: T2, Lyn (Homo sapiens, UniProt P07948); test: Kinase inhibition assay (33P transfer), Lyn; settings: Table 6, Lyn-1 kinase inhibition class
T2 construct: Kinases are expressed as either kinase domains or full length constructs; made in house
Source text: (§2) The inhibitor compounds described herein are screened in the following manner. Kinases suitable for use in the following protocol to determine kinase activity of the compounds described herein include, -but are not limited to: Lck, Lyn, Src, Fyn, Syk, Zap-70, Itk, Tec, Btk, EGFR, ErbB2, Kdr, Flt-1, Flt-3, Tek, c-Met, InsR, and AKT.
(§3) Kinases are expressed as either kinase domains or full length constructs fused to glutathione S-transferase (GST) or polyHistidine tagged fusion proteins in either E. colior Baculovirus-High Five expression systems. They are purified to near homogeneity by affinity chromatography essentially as previously described (Lehr et al., 1996; Gish et al., 1995). In some instances, kinases are co-expressed or mixed with purified or partially purified regulatory polypeptides prior to measurement of activity.
(§4) Kinase activity and inhibition are measured essentially by established protocols (Braunwalder et al., 1996). Briefly, The transfer of ^33PO4 from ATP to the synthetic substrates poly(Glu, Tyr) 4:1 or poly(Arg, Ser) 3:1 attached to the bioactive surface of microtiter plates serves as the basis to evaluate enzyme activity. After an incubation period, the amount of phosphate transferred is measured by first washing the plate with 0.5% phosphoric acid, adding liquid scintillant, and then counting in a liquid scintillation detector. The IC50 is determined by the concentration of compound that causes a 50% reduction in the amount of […] incorporated onto the substrate bound to the plate.

Src = target: T3, Src (Homo sapiens, UniProt P12931); test: Kinase inhibition assay (33P transfer), Src; settings: Table 6, Src-1 kinase inhibition class
T3 construct: Kinases are expressed as either kinase domains or full length constructs; made in house
Source text: as §2, §3, §4

Fyn = target: T4, Fyn (Homo sapiens, UniProt P06241); test: Kinase inhibition assay (33P transfer), Fyn; settings: read-out: Fyn-1
T4 construct: Kinases are expressed as either kinase domains or full length constructs; made in house
Source text: as §2, §3, §4

Zap-70 = target: T5, Zap-70 (Homo sapiens, UniProt P43403); test: Kinase inhibition assay (33P transfer), Zap-70; settings: Table 3; read-out: Zap-1
T5 construct: Kinases are expressed as either kinase domains or full length constructs; made in house
T5 sequence (P43403 1-619): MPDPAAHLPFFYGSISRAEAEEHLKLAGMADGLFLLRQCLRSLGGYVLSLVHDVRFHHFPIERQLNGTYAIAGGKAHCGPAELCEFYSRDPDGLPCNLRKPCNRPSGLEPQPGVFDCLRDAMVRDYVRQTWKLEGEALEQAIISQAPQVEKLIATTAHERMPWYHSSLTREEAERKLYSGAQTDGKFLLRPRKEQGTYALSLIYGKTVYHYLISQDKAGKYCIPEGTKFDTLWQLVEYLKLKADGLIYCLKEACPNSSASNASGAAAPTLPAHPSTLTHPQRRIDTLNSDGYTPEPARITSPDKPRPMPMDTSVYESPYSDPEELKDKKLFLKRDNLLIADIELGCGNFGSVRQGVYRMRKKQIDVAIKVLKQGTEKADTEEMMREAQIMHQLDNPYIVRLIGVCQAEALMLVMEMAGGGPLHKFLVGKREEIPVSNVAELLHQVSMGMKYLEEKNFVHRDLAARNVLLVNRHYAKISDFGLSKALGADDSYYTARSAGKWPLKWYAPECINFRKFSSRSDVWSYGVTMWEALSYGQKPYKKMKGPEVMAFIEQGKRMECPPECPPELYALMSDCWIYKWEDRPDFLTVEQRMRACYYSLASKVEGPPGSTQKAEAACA
Outline: as §1

Itk = target: T6, Itk (Homo sapiens, UniProt Q08881); test: Kinase inhibition assay (33P transfer), Itk; settings: Table 3; read-out: Itk-1
T6 construct: Kinases are expressed as either kinase domains or full length constructs; made in house
T6 sequence (Q08881 1-620): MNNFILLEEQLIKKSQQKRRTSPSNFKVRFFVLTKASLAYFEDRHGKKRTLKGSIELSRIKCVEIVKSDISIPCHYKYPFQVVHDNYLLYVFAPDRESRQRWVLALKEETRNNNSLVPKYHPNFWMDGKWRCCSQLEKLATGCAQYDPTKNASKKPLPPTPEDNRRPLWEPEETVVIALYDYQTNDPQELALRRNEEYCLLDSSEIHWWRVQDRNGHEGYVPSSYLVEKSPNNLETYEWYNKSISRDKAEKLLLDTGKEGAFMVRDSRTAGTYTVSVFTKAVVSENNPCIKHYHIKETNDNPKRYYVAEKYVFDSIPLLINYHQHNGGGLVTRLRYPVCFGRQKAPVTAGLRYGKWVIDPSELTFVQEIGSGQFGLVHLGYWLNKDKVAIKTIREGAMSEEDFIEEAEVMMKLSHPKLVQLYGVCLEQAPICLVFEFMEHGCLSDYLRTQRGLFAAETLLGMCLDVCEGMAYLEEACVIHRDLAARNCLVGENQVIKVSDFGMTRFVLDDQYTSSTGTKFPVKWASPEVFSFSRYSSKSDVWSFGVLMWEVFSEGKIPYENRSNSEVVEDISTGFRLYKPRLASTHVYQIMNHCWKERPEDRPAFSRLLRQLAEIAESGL
Outline: (§5)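 Read-out: scintillation counts of 33P moved from ATP onto synthetic peptide polymer coated on the well surface, after washing with 0.5% phosphoric acid. Enzymes were tagged (GST or polyHistidine) and came from bacterial or insect-cell expression. IC50 marks 50% loss of incorporated label.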

EGFR = target: T7, EGFR (Homo sapiens, UniProt P00533); test: Kinase inhibition assay (33P transfer), EGFR; settings: Table 2, kinase inhibition class; read-out: EGFR-1
T7 construct: Kinases are expressed as either kinase domains or full length constructs; made in house
Outline: as §5

Kdr = target: T8, Kdr (Homo sapiens, UniProt P35968); test: Kinase inhibition assay (33P transfer), Kdr; settings: Table 3; read-out: KDR-1
T8 construct: Kinases are expressed as either kinase domains or full length constructs; made in house
Outline: as §1

Flt-1 = target: T9, Flt-1 (Homo sapiens, UniProt P17948); test: Kinase inhibition assay (33P transfer), Flt-1
T9 construct: Kinases are expressed as either kinase domains or full length constructs; made in house
Source text: as §2, §3, §4

Tek = target: T10, Tek (Homo sapiens, UniProt Q02763); test: Kinase inhibition assay (33P transfer), Tek; settings: read-out: Tek-1
T10 construct: Kinases are expressed as either kinase domains or full length constructs; made in house
Outline: as §5

c-Met = target: T11, c-Met (Homo sapiens, UniProt P08581); test: Kinase inhibition assay (33P transfer), c-Met; settings: Table 2, kinase inhibition class; read-out: Met-1
T11 construct: Kinases are expressed as either kinase domains or full length constructs; made in house
Outline: as §5

AKT = target: T12, AKT (Homo sapiens, UniProt Q9Y243); test: Kinase inhibition assay (33P transfer), AKT; settings: Table 2, kinase inhibition class; read-out: AKT3-1
T12 construct: Kinases are expressed as either kinase domains or full length constructs; made in house
Outline: as §1

PDGFRB = target: T13, PDGFRB (Homo sapiens, UniProt P09619); test: Kinase inhibition assay (33P transfer), PDGFRB; settings: read-out: PDGFRB-1
T13 construct: Kinases are expressed as either kinase domains or full length constructs; made in house

Hck-1 = target: T14, Hck-1 (Homo sapiens, UniProt P08631); test: Kinase inhibition assay (33P transfer), Hck; settings: Table 6, Hck-1 kinase inhibition class
T14 construct: Kinases are expressed as either kinase domains or full length constructs; made in house

ErbB4 = target: T15, ErbB4 (Homo sapiens, UniProt Q15303); test: Kinase inhibition assay (33P transfer), ErbB4; settings: read-out: ErbB4-1
T15 construct: Kinases are expressed as either kinase domains or full length constructs; made in house

FGFR1 = target: T16, FGFR1 (Homo sapiens, UniProt P11362); test: Kinase inhibition assay (33P transfer), FGFR1; settings: read-out: FGFR1-1
T16 construct: Kinases are expressed as either kinase domains or full length constructs; made in house

ErbB2 = target: T17, ErbB2 (Homo sapiens, UniProt P04626); test: Kinase inhibition assay (33P transfer), ErbB2; settings: read-out: ErbB2-2
T17 construct: Kinases are expressed as either kinase domains or full length constructs; made in house
Outline: as §5

IGFR-1 = target: T18, IGFR-1 (Homo sapiens, UniProt P08069); test: Kinase inhibition assay (33P transfer), IGFR-1; settings: Table 2, kinase inhibition class
T18 construct: Kinases are expressed as either kinase domains or full length constructs; made in house

T11 sequence (P08581 25-1390): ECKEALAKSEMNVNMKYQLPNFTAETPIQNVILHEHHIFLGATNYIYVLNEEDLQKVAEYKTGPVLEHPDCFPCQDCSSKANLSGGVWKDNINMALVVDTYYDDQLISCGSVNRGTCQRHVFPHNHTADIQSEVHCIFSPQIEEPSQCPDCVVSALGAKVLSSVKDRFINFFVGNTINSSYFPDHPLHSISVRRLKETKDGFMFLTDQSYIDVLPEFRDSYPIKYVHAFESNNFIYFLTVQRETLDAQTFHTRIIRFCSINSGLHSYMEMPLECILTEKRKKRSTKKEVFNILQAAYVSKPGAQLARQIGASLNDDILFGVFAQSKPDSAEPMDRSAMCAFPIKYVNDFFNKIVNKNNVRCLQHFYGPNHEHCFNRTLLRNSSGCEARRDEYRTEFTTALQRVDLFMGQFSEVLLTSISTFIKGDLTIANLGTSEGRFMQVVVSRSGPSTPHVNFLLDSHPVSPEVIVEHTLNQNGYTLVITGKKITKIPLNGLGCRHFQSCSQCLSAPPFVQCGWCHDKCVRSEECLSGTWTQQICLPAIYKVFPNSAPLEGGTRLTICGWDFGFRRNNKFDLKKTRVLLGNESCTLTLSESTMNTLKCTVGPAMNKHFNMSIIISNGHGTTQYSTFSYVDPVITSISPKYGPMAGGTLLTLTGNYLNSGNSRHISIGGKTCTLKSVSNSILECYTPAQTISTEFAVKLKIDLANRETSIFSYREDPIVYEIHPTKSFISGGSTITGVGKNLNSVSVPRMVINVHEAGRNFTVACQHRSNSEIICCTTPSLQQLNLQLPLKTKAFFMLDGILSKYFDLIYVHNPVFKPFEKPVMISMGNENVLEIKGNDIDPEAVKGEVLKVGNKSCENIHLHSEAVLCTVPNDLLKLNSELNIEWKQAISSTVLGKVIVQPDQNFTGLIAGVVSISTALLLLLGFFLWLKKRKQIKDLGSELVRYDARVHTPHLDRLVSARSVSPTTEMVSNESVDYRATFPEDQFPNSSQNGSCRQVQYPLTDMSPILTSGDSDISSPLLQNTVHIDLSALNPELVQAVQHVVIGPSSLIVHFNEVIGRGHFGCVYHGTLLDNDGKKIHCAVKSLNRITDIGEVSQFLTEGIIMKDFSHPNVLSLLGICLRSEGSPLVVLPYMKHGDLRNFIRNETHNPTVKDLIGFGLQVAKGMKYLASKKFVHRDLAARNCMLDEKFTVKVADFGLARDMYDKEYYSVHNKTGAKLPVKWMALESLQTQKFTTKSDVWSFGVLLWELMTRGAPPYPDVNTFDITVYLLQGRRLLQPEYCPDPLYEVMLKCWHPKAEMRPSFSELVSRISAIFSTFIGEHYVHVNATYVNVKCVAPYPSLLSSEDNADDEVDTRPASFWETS
T10 sequence (Q02763 23-1124, species assumed): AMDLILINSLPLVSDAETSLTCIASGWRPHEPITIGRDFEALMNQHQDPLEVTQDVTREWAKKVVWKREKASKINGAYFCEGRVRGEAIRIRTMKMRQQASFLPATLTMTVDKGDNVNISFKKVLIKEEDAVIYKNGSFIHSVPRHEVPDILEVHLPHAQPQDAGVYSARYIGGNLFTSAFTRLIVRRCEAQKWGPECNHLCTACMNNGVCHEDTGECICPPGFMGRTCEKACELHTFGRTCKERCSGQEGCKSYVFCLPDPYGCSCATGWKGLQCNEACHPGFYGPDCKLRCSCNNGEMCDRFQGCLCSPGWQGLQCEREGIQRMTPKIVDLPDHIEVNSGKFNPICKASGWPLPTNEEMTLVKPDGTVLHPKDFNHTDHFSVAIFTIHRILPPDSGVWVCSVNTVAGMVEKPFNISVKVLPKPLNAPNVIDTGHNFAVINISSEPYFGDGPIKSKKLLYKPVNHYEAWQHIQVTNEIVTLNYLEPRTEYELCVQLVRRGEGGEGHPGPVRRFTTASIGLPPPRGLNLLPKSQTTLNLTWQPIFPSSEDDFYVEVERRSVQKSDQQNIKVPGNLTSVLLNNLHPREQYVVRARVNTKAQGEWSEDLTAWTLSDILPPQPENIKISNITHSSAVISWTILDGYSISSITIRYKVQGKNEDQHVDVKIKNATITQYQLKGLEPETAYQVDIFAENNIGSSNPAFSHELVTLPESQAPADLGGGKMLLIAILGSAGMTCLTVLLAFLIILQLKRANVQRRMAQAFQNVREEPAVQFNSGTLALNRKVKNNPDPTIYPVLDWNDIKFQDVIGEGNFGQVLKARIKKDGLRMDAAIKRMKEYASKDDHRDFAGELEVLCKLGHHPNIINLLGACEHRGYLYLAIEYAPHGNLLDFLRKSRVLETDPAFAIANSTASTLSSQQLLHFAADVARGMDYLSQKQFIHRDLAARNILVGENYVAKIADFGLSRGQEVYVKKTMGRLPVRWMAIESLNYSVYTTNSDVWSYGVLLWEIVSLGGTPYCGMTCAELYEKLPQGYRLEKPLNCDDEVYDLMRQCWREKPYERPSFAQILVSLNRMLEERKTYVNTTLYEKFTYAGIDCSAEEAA
T3 sequence (P12931 whole entry, species assumed, the tested form may be a part): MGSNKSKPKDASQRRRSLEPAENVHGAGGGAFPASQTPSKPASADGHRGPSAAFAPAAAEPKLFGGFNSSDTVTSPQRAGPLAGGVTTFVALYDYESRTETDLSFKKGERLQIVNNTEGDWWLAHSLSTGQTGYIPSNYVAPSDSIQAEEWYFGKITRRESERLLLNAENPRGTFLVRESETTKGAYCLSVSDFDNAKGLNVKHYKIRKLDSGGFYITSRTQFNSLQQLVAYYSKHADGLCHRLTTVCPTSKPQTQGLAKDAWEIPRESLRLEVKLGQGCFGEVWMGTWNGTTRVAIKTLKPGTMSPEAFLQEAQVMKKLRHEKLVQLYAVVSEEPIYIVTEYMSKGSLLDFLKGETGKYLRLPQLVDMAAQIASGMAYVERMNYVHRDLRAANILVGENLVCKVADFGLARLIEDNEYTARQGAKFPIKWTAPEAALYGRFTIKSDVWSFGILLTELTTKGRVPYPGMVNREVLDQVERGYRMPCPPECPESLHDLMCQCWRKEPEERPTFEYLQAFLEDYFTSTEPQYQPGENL
T16 sequence (P11362 22-822, species assumed): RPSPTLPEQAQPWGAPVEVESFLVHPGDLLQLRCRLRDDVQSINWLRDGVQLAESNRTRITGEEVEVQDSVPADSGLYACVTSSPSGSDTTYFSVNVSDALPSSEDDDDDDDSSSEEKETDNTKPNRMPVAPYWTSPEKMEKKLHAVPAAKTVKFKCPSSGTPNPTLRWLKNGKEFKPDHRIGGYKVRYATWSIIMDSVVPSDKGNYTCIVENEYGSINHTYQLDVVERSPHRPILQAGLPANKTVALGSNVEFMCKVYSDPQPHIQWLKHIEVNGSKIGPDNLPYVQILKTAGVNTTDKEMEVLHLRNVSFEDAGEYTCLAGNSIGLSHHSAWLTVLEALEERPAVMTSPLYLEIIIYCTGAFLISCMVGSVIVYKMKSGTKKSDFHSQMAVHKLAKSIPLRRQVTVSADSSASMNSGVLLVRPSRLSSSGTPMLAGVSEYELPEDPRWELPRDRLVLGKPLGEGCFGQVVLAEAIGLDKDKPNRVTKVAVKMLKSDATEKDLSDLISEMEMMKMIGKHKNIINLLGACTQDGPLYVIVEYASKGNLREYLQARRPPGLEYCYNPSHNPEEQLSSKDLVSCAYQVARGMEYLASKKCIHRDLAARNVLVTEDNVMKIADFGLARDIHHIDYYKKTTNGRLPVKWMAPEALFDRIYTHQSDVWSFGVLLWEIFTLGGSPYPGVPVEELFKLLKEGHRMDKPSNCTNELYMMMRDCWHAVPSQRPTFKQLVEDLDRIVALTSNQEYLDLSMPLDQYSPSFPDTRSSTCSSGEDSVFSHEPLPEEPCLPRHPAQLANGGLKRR
T4 sequence (P06241 whole entry, species assumed, the tested form may be a part): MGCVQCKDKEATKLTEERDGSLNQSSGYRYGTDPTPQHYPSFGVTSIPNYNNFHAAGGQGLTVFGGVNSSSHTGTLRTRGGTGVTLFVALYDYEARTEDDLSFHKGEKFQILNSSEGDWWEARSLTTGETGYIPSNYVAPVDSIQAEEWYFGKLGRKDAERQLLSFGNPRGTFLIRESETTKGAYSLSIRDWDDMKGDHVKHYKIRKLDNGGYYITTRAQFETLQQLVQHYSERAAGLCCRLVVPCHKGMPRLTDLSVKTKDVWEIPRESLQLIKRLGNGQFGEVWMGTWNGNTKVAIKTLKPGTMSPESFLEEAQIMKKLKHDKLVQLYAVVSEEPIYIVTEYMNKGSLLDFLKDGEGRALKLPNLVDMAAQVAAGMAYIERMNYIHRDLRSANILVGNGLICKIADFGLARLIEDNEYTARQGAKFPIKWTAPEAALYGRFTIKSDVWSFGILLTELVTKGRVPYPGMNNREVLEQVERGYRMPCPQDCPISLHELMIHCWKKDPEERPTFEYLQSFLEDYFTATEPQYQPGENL
T2 sequence (P07948 whole entry, species assumed, the tested form may be a part): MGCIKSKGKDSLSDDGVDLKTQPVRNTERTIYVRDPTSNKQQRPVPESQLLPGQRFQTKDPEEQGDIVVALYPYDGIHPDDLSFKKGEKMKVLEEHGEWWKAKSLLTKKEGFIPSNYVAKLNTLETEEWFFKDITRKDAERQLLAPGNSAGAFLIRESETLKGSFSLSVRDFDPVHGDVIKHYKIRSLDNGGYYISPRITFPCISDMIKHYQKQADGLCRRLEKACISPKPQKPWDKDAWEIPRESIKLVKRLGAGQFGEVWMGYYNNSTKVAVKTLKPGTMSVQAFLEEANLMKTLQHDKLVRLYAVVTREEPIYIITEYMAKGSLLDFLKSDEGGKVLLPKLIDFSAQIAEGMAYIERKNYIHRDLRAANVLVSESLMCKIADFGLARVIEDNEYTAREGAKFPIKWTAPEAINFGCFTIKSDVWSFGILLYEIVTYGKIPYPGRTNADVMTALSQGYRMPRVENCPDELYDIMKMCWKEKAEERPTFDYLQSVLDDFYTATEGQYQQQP

IC50 (Lck)	IC50 (Lyn)	IC50 (Src)	IC50 (Fyn)	IC50 (Zap-70)	IC50 (Itk)	IC50 (EGFR)	IC50 (Kdr)	IC50 (Flt-1)	IC50 (Tek)	IC50 (c-Met)	IC50 (AKT)	IC50 (PDGFRB)	IC50 (Hck-1)	IC50 (ErbB4)	IC50 (FGFR1)	IC50 (ErbB2)	IC50 (IGFR-1)	SMILES
< 0.812 µM	0.812 to 4.87 µM	0.812 to 4.87 µM	0.812 to 4.87 µM	> 9.14 µM	0.812 to 4.87 µM	> 9.14 µM	< 0.812 µM	< 0.812 µM	7.11 to 9.14 µM	0.812 to 4.87 µM	> 9.14 µM	< 0.812 µM	> 9.14 µM	> 9.14 µM	< 0.812 µM	–	–	COc1cc(Nc2ncnc(-n3c(N)nc4ccccc43)n2)cc(OC)c1OCCN1CCOCC1 [Compound 445]
< 1.02 µM	< 1.02 µM	1.02 to 6.1 µM	1.02 to 6.1 µM	> 11.4 µM	> 11.4 µM	< 1.02 µM	6.1 to 8.9 µM	> 11.4 µM	> 11.4 µM	> 11.4 µM	> 11.4 µM	1.02 to 6.1 µM	> 11.4 µM	1.02 to 6.1 µM	6.1 to 8.9 µM	1.02 to 6.1 µM	1.02 to 6.1 µM	COc1cc(Nc2ncnc(NC3CC3c3ccccc3)n2)cc(OC)c1OC (stereo not drawn) [Compound 428]
> 8.5 µM	> 8.5 µM	> 8.5 µM	> 8.5 µM	> 8.5 µM	> 8.5 µM	> 8.5 µM	< 0.755 µM	0.755 to 4.53 µM	> 8.5 µM	> 8.5 µM	> 8.5 µM	> 8.5 µM	> 8.5 µM	> 8.5 µM	> 8.5 µM	–	–	COc1ccc(Nc2nc3ccccc3n2-c2ncnc(Nc3cc(OC)c(OC)c(OC)c3)n2)cc1OC [Compound 400]
1.14 to 6.87 µM	< 1.14 µM	< 1.14 µM	1.14 to 6.87 µM	> 12.9 µM	1.14 to 6.87 µM	1.14 to 6.87 µM	< 1.14 µM	< 1.14 µM	10 to 12.9 µM	< 1.14 µM	1.14 to 6.87 µM	< 1.14 µM	> 12.9 µM	1.14 to 6.87 µM	< 1.14 µM	–	–	OCc1cccc(Nc2ncnc(Nc3cc(-c4ccco4)n[nH]3)n2)c1 [Compound 429]
